The target in series [1] is SARS-CoV-2 main protease (Mpro) (Severe acute respiratory syndrome coronavirus 2, UniProt P0DTD1). Nature of the series: SARS-CoV-2 Mpro FRET enzymatic assay. In kind it is biochemical.
Series [2] relates to SARS-CoV-2 (isolate USA WA1/2020). In kind it is cell-based. The conditions noted are these: read-out: EC50 (antiviral); Calu-3 cells, MOI 0.5, 48 hours.
Series [3] deals with Calu-3 cells.
Series [4] addresses SARS-CoV-2 Mpro (Severe acute respiratory syndrome coronavirus 2, UniProt P0DTD1). Nature of the series: Mpro enzyme kinetics, Morrison plot Ki determination. In kind it is biochemical.

The term pIC50 denotes −log10 of the IC50, conventionally taken in molar units. A low value points to a large IC50. Usually pEC50 stands for the negative decadic logarithm of the EC50, by convention in mol/L. What is called pKi is the Ki on a negative log10 scale, so that one unit is a factor of ten. Read a high pKi as a small Ki.

pEC50, pIC50, pKi: −log10 of the molar value. Like-named read-outs stand apart in the source and are kept apart here.

As to `CCCC#CC(=O)N(c1ccc(-c2ccccc2)cc1)C(C(=O)N[C@@H](C)c1ccccc1)c1cccnc1` (stereo partly drawn) [Jun10923, N-([1,1’-biphenyl]-4-yl)-N-(2-oxo-2-(((S)-1-phenylethyl)amino)-1-(pyridin-3-yl)ethyl)hex-2-ynamide], the pIC50 in series [1] was 5.60. Molecule `C[C@H](NC(=O)C(c1cccnc1)N(C(=O)C#CC(C)(C)C)c1ccc(-c2ccccc2)cc1)c1ccccc1` (stereo partly drawn) [Jun10925, N-([1,1’-biphenyl]-4-yl)-4,4-dimethyl-N-(2-oxo-2-(((S)-1-phenylethyl)amino)-1-(pyridin-3-yl)ethyl)pent-2-ynamide] showed a pIC50 in series [1] of less than 4.70.

In series [1], `C#CC(=O)N(c1ccc(-c2ccccc2)cc1)C(C(=O)N[C@@H](C)c1ccccc1)c1cccnc1` (stereo partly drawn) [Jun10221R, N-([1,1’-biphenyl]-4-yl)-N-((S)-2-oxo-2-(((S)-1-phenylethyl)amino)-1-(pyridin-3-yl)ethyl)propiolamide] had a pIC50 of 7.70. Regarding “N-([1,1’-biphenyl]-4-yl)-2-cyano-N-((S)-2-oxo-2-(((S)-1-phenylethyl)amino)-1-(pyridin-3-yl)ethyl)acetamide [Jun10541R]”, the negative logarithm of the EC50 (pEC50) in series [2] was 5.53. Besides, the “cytotoxicity to Calu-3 cells” value in series [3] was “not cytotoxic”. The molecule also showed a pKi in series [4] (Morrison equation fit, 20 μM FRET substrate, no preincubation) of 6.46. As for `COc1ccc(/C=C(\C#N)C(=O)N(c2ccc(-c3ccccc3)cc2)C(C(=O)N[C@@H](C)c2ccccc2)c2cccnc2)cc1` (stereo partly drawn) [Jun10963R, (E)-N-([1,1’-biphenyl]-4-yl)-2-cyano-3-(4-methoxyphenyl)-N-((S)-2-oxo-2-(((S)-1-phenylethyl)amino)-1-(pyridin-3-yl)ethyl)acrylamide], in series [1], the pIC50 was 6.25. Further, the pKi in series [4] was 6.24. Molecule `COc1ccc(/C=C(\C#N)C(=O)N(c2ccc(-c3ccccc3)cc2)C(C(=O)N[C@@H](C)c2ccccc2)c2cccnc2)cc1` (stereo partly drawn) [Jun10963S, (E)-N-([1,1’-biphenyl]-4-yl)-2-cyano-3-(4-methoxyphenyl)-N-((R)-2-oxo-2-(((S)-1-phenylethyl)amino)-1-(pyridin-3-yl)ethyl)acrylamide] had a pIC50 in series [1] of less than 4.70.

The values above are taken from article PMC10529912 (European journal of medicinal chemistry, 2023).
